Experimental data: the NIST ThermoML archive (doi:10.1021/je201010s)
± gives the expanded uncertainty stated by the source.

Tests used:
[1] = 101 kPa, Liquid, Vibrating tube method
[2] = refractive index (Na D-line) (dimensionless); conditions: 101.33 kPa, Liquid, Standard Abbe refractometry
[3] = wn = mass fraction of the nth substance listed; conditions: 101 kPa, Liquid, Vibrating tube method
[4] = refractive index (Na D-line) (dimensionless); wn = mass fraction of the nth substance listed; conditions: 101 kPa, Liquid, Standard Abbe refractometry

CCCCn1cc[n+](C)c1.F[B-](F)(F)F [1-butyl-3-methylimidazolium tetrafluoroborate]
Conditions | mass density, [1] [kg/m3] | refractive index, [2]
298.15 K | 1202.87 ± 1.8 | 1.422 ± 0.0013
323.15 K | 1185.11 ± 6 | 1.4155 ± 0.002

CCCCn1cc[n+](C)c1.F[B-](F)(F)F [1-butyl-3-methylimidazolium tetrafluoroborate] + CC(C)O
323.15 K
Conditions | mass density, [3] [kg/m3] | refractive index, [4]
w2 = 0 | 1185.11 ± 6 | 1.4155 ± 0.002
w2 = 0.0089 | 1180.38 ± 6 | 1.4152 ± 0.002
w2 = 0.0287 | 1170.07 ± 6 | 1.4143 ± 0.002
w2 = 0.0624 | 1147.36 ± 6 | 1.4122 ± 0.002
w2 = 0.1053 | 1122.14 ± 6 | 1.4106 ± 0.002
w2 = 0.1649 | 1091.32 ± 6 | 1.4077 ± 0.002
w2 = 0.2183 | 1061.8 ± 6 | 1.4071 ± 0.002
w2 = 0.2719 | 1031.58 ± 6 | 1.406 ± 0.002
w2 = 0.324 | 1012 ± 6 | 1.403 ± 0.002
w2 = 0.4108 | 973.34 ± 6 | 1.3989 ± 0.002
w2 = 0.5167 | 927.14 ± 6 | 1.3948 ± 0.002
w2 = 0.5965 | 901.85 ± 6 | 1.391 ± 0.002
w2 = 0.6194 | 888.84 ± 6 | 1.3904 ± 0.002
w2 = 0.7697 | 835.46 ± 6 | 1.3817 ± 0.002
w2 = 0.8372 | 809.26 ± 6 | 1.3749 ± 0.002
w2 = 0.9344 | 778.75 ± 6 | 1.3668 ± 0.002

CCCCn1cc[n+](C)c1.F[B-](F)(F)F [1-butyl-3-methylimidazolium tetrafluoroborate] + O
298.15 K
Conditions | mass density, [3] [kg/m3] | refractive index, [4]
w2 = 0 | 1202.87 ± 1.8 | 1.422 ± 0.0013
w2 = 0.0098 | 1199.53 ± 1.8 | 1.4206 ± 0.0013
w2 = 0.0167 | 1196.97 ± 1.8 | 1.4194 ± 0.0013
w2 = 0.0205 | 1195.79 ± 1.8 | 1.4191 ± 0.0013
w2 = 0.029 | 1193.14 ± 1.8 | 1.418 ± 0.0013
w2 = 0.0396 | 1189.89 ± 1.8 | 1.4169 ± 0.0013
w2 = 0.0585 | 1184.23 ± 1.8 | 1.4141 ± 0.0013
w2 = 0.0982 | 1173.48 ± 1.8 | 1.4094 ± 0.0013
w2 = 0.154 | 1159.29 ± 1.8 | 1.4033 ± 0.0013
w2 = 0.2046 | 1147.24 ± 1.8 | 1.398 ± 0.0013
w2 = 0.2517 | 1136.64 ± 1.8 | 1.3934 ± 0.0012
w2 = 0.3043 | 1125.12 ± 1.8 | 1.3883 ± 0.0012
w2 = 0.3966 | 1106.01 ± 1.8 | 1.3801 ± 0.0012
w2 = 0.5061 | 1084.29 ± 1.8 | 1.3705 ± 0.0012
w2 = 0.6986 | 1048.69 ± 1.8 | 1.3549 ± 0.0012
w2 = 0.8897 | 1015.75 ± 1.8 | 1.3406 ± 0.0012

CC(C)O [propan-2-ol]
Conditions | mass density, [1] [kg/m3] | refractive index, [2]
298.15 K | 780.82 ± 1 | 1.3751 ± 0.0012
323.15 K | 758.67 ± 6 | 1.3604 ± 0.002

CC(C)O [propan-2-ol] + CCCCn1cc[n+](C)c1.F[B-](F)(F)F
323.15 K, w1 = 1
Conditions | mass density [kg/m3] | refractive index
[3] | 758.67 ± 6 | –
[4] | – | 1.3604 ± 0.002

CC(C)O [propan-2-ol] + O
298.15 K
Conditions | mass density, [3] [kg/m3] | refractive index, [4]
w1 = 0.048 | – | 1.3365 ± 0.0012
w1 = 0.0915 | 982.05 ± 1 | –
w1 = 0.0987 | – | 1.3412 ± 0.0012
w1 = 0.1446 | – | 1.3458 ± 0.0012
w1 = 0.2009 | – | 1.3502 ± 0.0012
w1 = 0.2131 | 960.29 ± 1 | –
w1 = 0.241 | – | 1.3536 ± 0.0012
w1 = 0.2951 | – | 1.3569 ± 0.0012
w1 = 0.3299 | 936.93 ± 1 | –
w1 = 0.3387 | – | 1.3597 ± 0.0012
w1 = 0.3921 | – | 1.3622 ± 0.0012
w1 = 0.4412 | – | 1.3645 ± 0.0012
w1 = 0.4795 | 906.69 ± 1 | –
w1 = 0.4805 | – | 1.366 ± 0.0012
w1 = 0.5009 | 901.31 ± 1 | –
w1 = 0.5386 | – | 1.3681 ± 0.0012
w1 = 0.618 | 874.45 ± 1 | –
w1 = 0.6205 | – | 1.3707 ± 0.0012
w1 = 0.6337 | – | 1.3711 ± 0.0012
w1 = 0.6782 | – | 1.3722 ± 0.0012
w1 = 0.684 | 858.73 ± 1 | –
w1 = 0.7452 | – | 1.3737 ± 0.0012
w1 = 0.7861 | – | 1.3744 ± 0.0012
w1 = 0.7874 | 834.01 ± 1 | –
w1 = 0.8541 | – | 1.3752 ± 0.0012
w1 = 0.8788 | 811.99 ± 1 | –
w1 = 0.8959 | – | 1.3756 ± 0.0012
w1 = 0.8976 | 807.44 ± 1 | –
w1 = 0.9154 | 803.01 ± 1 | –
w1 = 0.9311 | 799.05 ± 1 | –
w1 = 0.9492 | – | 1.3756 ± 0.0012
w1 = 0.9502 | 794.22 ± 1 | –
w1 = 0.9752 | 787.71 ± 1 | –
w1 = 0.9895 | 783.8 ± 1 | –
w1 = 1 | 780.82 ± 1 | 1.3751 ± 0.0012

O [water]
Conditions | refractive index
[2], 298.15 K | 1.3325 ± 0.0012

O [water] + CC(C)O
Conditions | refractive index
[4], 298.15 K, w2 = 0 | 1.3325 ± 0.0012

O [water] + CCCCn1cc[n+](C)c1.F[B-](F)(F)F
Conditions | refractive index
[4], 298.15 K, w1 = 1 | 1.3325 ± 0.0012
